# Laboratory results reported in ChEMBL document CHEMBL3885861, “Open TG-GATES”.
# Species on record: Rattus norvegicus
# Assay: Open TG-GATES - Regimen: Single
# Assay type: toxicity, organism-based, Sprague-Dawley
# Design: regimen Single, gender Male, age 6 weeks
# Conditions: in vivo, po, 20 mg/kg, route gavage, dose level Middle; for APTT / Bas / Eos / Fbg / Hb / Ht / Lym / MCH / MCHC / MCV / Mono / Neu / PT / Plat / RBC / Ret / WBC: tissue Blood; for LIVER: tissue Liver; for A/G / ALP / ALT / AST / BUN / CRE / Ca / Cl / DBIL / GLC / IP / K / LDH / Na / PL / RALB / TBIL / TC / TG / TP / gamma-GTP: tissue Plasma
smiles,measurement,setting,value
"O=[N+]([O-])c1ccc(O)c([N+](=O)[O-])c1 [2,4-DINITROPHENOL]",TERMINAL_BW,3 h,203.6 g
same,APTT,3 h,16.6 s
same,Bas,3 h,0%
same,Eos,3 h,1%
same,Fbg,3 h,246.4 mg/dL
same,Hb,3 h,12.6 g/dL
same,Ht,3 h,37.5%
same,Lym,3 h,75%
same,MCH,3 h,22 pg
same,MCHC,3 h,33.5%
same,MCV,3 h,65.6 fL
same,Mono,3 h,11.8%
same,Neu,3 h,12.4%
same,PT,3 h,11.8 s
same,Plat,3 h,115.4 x10_4/uL
same,RBC,3 h,572.2 x10_4/ul
same,Ret,3 h,10.2%
same,WBC,3 h,93.4 x10_2/uL
same,LIVER,3 h,9.5 g
same,A/G,3 h,2.3
same,ALP,3 h,1342.4 IU/L
same,ALT,3 h,37.8 IU/L
same,AST,3 h,62.6 IU/L
same,BUN,3 h,12.8 mg/dL
same,CRE,3 h,0.4 mg/dL
same,Ca,3 h,11.9 mg/dL
same,Cl,3 h,104 meq/L
same,DBIL,3 h,0.012 mg/dL
same,GLC,3 h,218.2 mg/dL
same,IP,3 h,10.9 mg/dL
same,K,3 h,4.2 meq/L
same,LDH,3 h,125.2 IU/L
same,Na,3 h,138.4 meq/L
same,PL,3 h,143 mg/dL
same,RALB,3 h,3.8 g/dL
same,TBIL,3 h,0.036 mg/dL
same,TC,3 h,85.4 mg/dL
same,TG,3 h,68.6 mg/dL
same,TP,3 h,5.5 g/dL
same,gamma-GTP,3 h,0 IU/L
same,TERMINAL_BW,6 h,200.1 g
same,APTT,6 h,16 s
same,Bas,6 h,0%
same,Eos,6 h,1.2%
same,Fbg,6 h,235 mg/dL
same,Hb,6 h,13.1 g/dL
same,Ht,6 h,39.1%
same,Lym,6 h,71.4%
same,MCH,6 h,22 pg
same,MCHC,6 h,33.6%
same,MCV,6 h,65.5 fL
same,Mono,6 h,10.2%
same,Neu,6 h,17.2%
same,PT,6 h,12 s
same,Plat,6 h,124 x10_4/uL
same,RBC,6 h,596.4 x10_4/ul
same,Ret,6 h,8.9%
same,WBC,6 h,111 x10_2/uL
same,LIVER,6 h,8.2 g
same,A/G,6 h,2.6
same,ALP,6 h,1422.2 IU/L
same,ALT,6 h,36.4 IU/L
same,AST,6 h,78.6 IU/L
same,BUN,6 h,12.2 mg/dL
same,CRE,6 h,0.4 mg/dL
same,Ca,6 h,11 mg/dL
same,Cl,6 h,105.8 meq/L
same,DBIL,6 h,0.02 mg/dL
same,GLC,6 h,204.6 mg/dL
same,IP,6 h,10.9 mg/dL
same,K,6 h,4.5 meq/L
same,LDH,6 h,129.2 IU/L
same,Na,6 h,139.2 meq/L
same,PL,6 h,141.2 mg/dL
same,RALB,6 h,3.9 g/dL
same,TBIL,6 h,0.044 mg/dL
same,TC,6 h,85.6 mg/dL
same,TG,6 h,46.4 mg/dL
same,TP,6 h,5.4 g/dL
same,gamma-GTP,6 h,0 IU/L
same,TERMINAL_BW,9 h,203.1 g
same,APTT,9 h,16.2 s
same,Bas,9 h,0%
same,Eos,9 h,0.8%
same,Fbg,9 h,255.5 mg/dL
same,Hb,9 h,12.9 g/dL
same,Ht,9 h,38.4%
same,Lym,9 h,77.2%
same,MCH,9 h,22.1 pg
same,MCHC,9 h,33.8%
same,MCV,9 h,65.4 fL
same,Mono,9 h,4.8%
same,Neu,9 h,17.2%
same,PT,9 h,12 s
same,Plat,9 h,132.8 x10_4/uL
same,RBC,9 h,587.2 x10_4/ul
same,Ret,9 h,10.4%
same,WBC,9 h,104.5 x10_2/uL
same,LIVER,9 h,8.5 g
same,A/G,9 h,2.4
same,ALP,9 h,1370.8 IU/L
same,ALT,9 h,34 IU/L
same,AST,9 h,64.5 IU/L
same,BUN,9 h,10.5 mg/dL
same,CRE,9 h,0.4 mg/dL
same,Ca,9 h,11.3 mg/dL
same,Cl,9 h,104.5 meq/L
same,DBIL,9 h,0.02 mg/dL
same,GLC,9 h,198.5 mg/dL
same,IP,9 h,11.2 mg/dL
same,K,9 h,4.7 meq/L
same,LDH,9 h,158 IU/L
same,Na,9 h,139 meq/L
same,PL,9 h,153.8 mg/dL
same,RALB,9 h,3.9 g/dL
same,TBIL,9 h,0.045 mg/dL
same,TC,9 h,83.5 mg/dL
same,TG,9 h,70.2 mg/dL
same,TP,9 h,5.6 g/dL
same,gamma-GTP,9 h,0 IU/L
same,TERMINAL_BW,24 h,216.8 g
same,APTT,24 h,15.6 s
same,Bas,24 h,0%
same,Eos,24 h,1.2%
same,Fbg,24 h,234.2 mg/dL
same,Hb,24 h,12.9 g/dL
same,Ht,24 h,38.4%
same,Lym,24 h,70.4%
same,MCH,24 h,21.6 pg
same,MCHC,24 h,33.7%
same,MCV,24 h,64.2 fL
same,Mono,24 h,11.6%
same,Neu,24 h,16.8%
same,PT,24 h,11.7 s
same,Plat,24 h,125.6 x10_4/uL
same,RBC,24 h,597.8 x10_4/ul
same,Ret,24 h,9%
same,WBC,24 h,122.2 x10_2/uL
same,LIVER,24 h,11.1 g
same,A/G,24 h,2.4
same,ALP,24 h,1483.4 IU/L
same,ALT,24 h,43.2 IU/L
same,AST,24 h,67.2 IU/L
same,BUN,24 h,16 mg/dL
same,CRE,24 h,0.4 mg/dL
same,Ca,24 h,11.3 mg/dL
same,Cl,24 h,103.2 meq/L
same,DBIL,24 h,0.01 mg/dL
same,GLC,24 h,182.2 mg/dL
same,IP,24 h,7.2 mg/dL
same,K,24 h,4.6 meq/L
same,LDH,24 h,101.4 IU/L
same,Na,24 h,139 meq/L
same,PL,24 h,163.8 mg/dL
same,RALB,24 h,3.9 g/dL
same,TBIL,24 h,0.032 mg/dL
same,TC,24 h,90 mg/dL
same,TG,24 h,131.8 mg/dL
same,TP,24 h,5.5 g/dL
same,gamma-GTP,24 h,0.8 IU/L
